pEC50: −log10 of the molar value. Read-outs that look alike come from different tables or passages of the source.
Legend:
human CB2 receptors = human CB2 receptors (Homo sapiens (Human), UniProt P34972); assay: functional cAMP assay, CHO cells expressing human CB2; assay type: cell-based; conditions: for EC50: Human CB2 EC50 (uM); for pEC50: read-out: Human CB2 EC50
How it was run: (§1)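 Readout: TR-FRET cAMP detection at 730 and 645 nm with 355 nm excitation, quantified from a standard curve spanning 10 μM to 0.13 nM cAMP. Human CB1- or CB2-expressing CHO cells were exposed to compound for 30 min at 30 °C in KRB buffer containing 1 mM IBMX. EC50 derived.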

human CB1 receptors = human CB1 receptors (Homo sapiens (Human), UniProt P21554); assay: functional cAMP assay, CHO cells expressing human CB1; assay type: cell-based
Sequence of human CB1 receptors (P21554 whole entry): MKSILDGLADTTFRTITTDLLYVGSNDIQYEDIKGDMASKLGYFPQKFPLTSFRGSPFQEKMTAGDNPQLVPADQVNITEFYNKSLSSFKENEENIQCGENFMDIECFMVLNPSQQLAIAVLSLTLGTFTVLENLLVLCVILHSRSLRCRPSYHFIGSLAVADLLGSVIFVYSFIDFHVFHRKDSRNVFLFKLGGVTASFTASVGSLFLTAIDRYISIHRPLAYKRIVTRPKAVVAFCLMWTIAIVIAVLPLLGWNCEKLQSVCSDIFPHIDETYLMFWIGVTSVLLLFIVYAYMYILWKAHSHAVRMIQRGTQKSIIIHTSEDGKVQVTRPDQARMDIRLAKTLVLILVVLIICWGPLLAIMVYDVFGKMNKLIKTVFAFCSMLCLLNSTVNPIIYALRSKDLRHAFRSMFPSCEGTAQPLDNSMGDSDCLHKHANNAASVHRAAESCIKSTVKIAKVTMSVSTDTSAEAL
How it was run: as §1

[1] = Human CB1 EC50 (uM), functional cAMP assay, CHO cells expressing human CB1
[2] = functional cAMP assay, CHO cells expressing human CB1; read-out: Human CB1 EC50

Sequence of human CB2 receptors (P34972 whole entry): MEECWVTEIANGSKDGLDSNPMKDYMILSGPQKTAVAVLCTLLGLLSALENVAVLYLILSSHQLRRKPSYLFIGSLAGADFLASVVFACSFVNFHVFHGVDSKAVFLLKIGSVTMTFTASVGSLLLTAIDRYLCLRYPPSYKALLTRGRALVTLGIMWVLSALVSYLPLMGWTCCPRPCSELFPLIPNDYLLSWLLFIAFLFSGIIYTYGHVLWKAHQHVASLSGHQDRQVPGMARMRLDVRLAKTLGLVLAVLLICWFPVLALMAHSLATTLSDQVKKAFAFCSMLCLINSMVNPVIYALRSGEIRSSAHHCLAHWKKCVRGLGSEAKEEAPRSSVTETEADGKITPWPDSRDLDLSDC

SMILES | EC50 (human CB2 receptors) | EC50 (human CB1 receptors; [1]) | pEC50 (human CB2 receptors) | pEC50 (human CB1 receptors; [2]) | pEC50 (human CB1 receptors; read-out: Human CB1 EC50; functional cAMP assay, CHO cells expressing human CB1)
CC1(COc2cc(C(=O)NC(C)(C)c3nnc(-c4ccccc4)o3)ncc2C2CC2)COC1 [Example 215, 5-cyclopropyl-4-[(3-methyloxetan-3-yl)methoxy]-N-[2-(5-phenyl-1,3,4-oxadiazol-2-yl)propan-2-yl]pyridine-2-carboxamide] | 0.0309 µM | > 10 µM |  |  | 
NC(=O)CC1(NC(=O)c2cc(OCC(F)(F)F)c(N3CC(F)(F)C3)cn2)CS(=O)(=O)C1 [Example 264, N-[3-(2-amino-2-oxoethyl)-1,1-dioxothietan-3-yl]-5-(3,3-difluoroazetidin-1-yl)-4-(2,2,2-trifluoroethoxy)pyridine-2-carboxamide] |  |  | 6.75 | < 5.00 | 
CC(C)(C)C(NC(=O)c1cc(OCC(F)(F)F)c(N2CC(F)(F)C2)cn1)C(N)=O (stereo not drawn) [Example 256, N-(1-amino-3,3-dimethyl-1-oxobutan-2-yl)-5-(3,3-difluoroazetidin-1-yl)-4-(2,2,2-trifluoroethoxy)pyridine-2-carboxamide] |  |  | 7.88 | < 5.00 | 
CC(CC(N)=O)(NC(=O)c1cc(OCC(F)(F)F)c(N2CC(F)(F)C2)cn1)C1CC1 (single isomer, unassigned) [Example 276, N-[4-amino-2-cyclopropyl-4-oxobutan-2-yl]-5-(3,3-difluoroazetidin-1-yl)-4-(2,2,2-trifluoroethoxy)pyridine-2-carboxamide] | 0.137 µM |  |  |  | < 5.00
CC1(C(NC(=O)c2cc(OCC(F)(F)F)c(C3CC3)cn2)C(N)=O)COC1 (single isomer, unassigned) [Example 268, N-[2-amino-1-(3-methyloxetan-3-yl)-2-oxoethyl]-5-cyclopropyl-4-(2,2,2-trifluoroethoxy)pyridine-2-carboxamide] | 0.225 µM | > 10 µM |  |  | 
CC(C)(C)NC(=O)c1cc(OCC(F)(F)F)c(C2CC2)cn1 [Example 70, 5-Cyclopropyl-4-(2,2,2-trifluoro-ethoxy)-pyridine-2-carboxylic acid tert-butylamide] |  |  | 7.98 | < 5.00 | 
C[C@H](Oc1cc(C(=O)NC(C(=O)N2CC(F)(F)C2)C(C)(C)C)ncc1C1CC1)C(F)(F)F (stereo partly drawn) [Example 203, 5-cyclopropyl-N-[1-(3,3-difluoroazetidin-1-yl)-3,3-dimethyl-1-oxobutan-2-yl]-4-[(2S)-1,1,1-trifluoropropan-2-yl]oxypyridine-2-carboxamide] |  |  | 8.29 | < 5.00 | 
Cc1nc(C(NC(=O)c2cc(O[C@@H](C)C(F)(F)F)c(C3CC3)cn2)C(C)(C)C)no1 (stereo partly drawn) [Example 220, 5-cyclopropyl-N-[2,2-dimethyl-1-(5-methyl-1,2,4-oxadiazol-3-yl)propyl]-4-[(2S)-1,1,1-trifluoropropan-2-yl]oxypyridine-2-carboxamide] |  |  | 8.57 | < 5.00 | 
CCC(CC)(NC(=O)c1cc(OCC2CC2)c(C2CC2)cn1)C(=O)NC [Example 45, 5-Cyclopropyl-4-cyclopropylmethoxy-pyridine-2-carboxylic acid (1-ethyl-1-methylcarbamoyl-propyl)-amide] |  |  | 7.77 | < 5.00 | 
CCC(CC)(CO)NC(=O)c1cc(OCC(F)(F)F)c(C2CC2)cn1 [Example 54, 5-Cyclopropyl-4-(2,2,2-trifluoro-ethoxy)-pyridine-2-carboxylic acid (1-ethyl-1-hydroxymethyl-propyl)-amide] |  |  | 7.73 | < 5.00 | 
Cc1nc(C(C)(CS(C)(=O)=O)NC(=O)c2cc(OCC(F)(F)F)c(C3=CCC3)cn2)no1 (stereo not drawn) [Example 127, 5-(cyclobuten-1-yl)-N-[2-(5-methyl-1,2,4-oxadiazol-3-yl)-1-methylsulfonylpropan-2-yl]-4-(2,2,2-trifluoroethoxy)pyridine-2-carboxamide] |  |  | 7.71 | < 5.00 | 
Cc1nc(C(C)(CS(C)(=O)=O)NC(=O)c2cc(OCCF)c(C3CC3)cn2)no1 (single isomer, unassigned) [Example 279, 5-cyclopropyl-4-(2-fluoroethoxy)-N-[2-(5-methyl-1,2,4-oxadiazol-3-yl)-1-methylsulfonylpropan-2-yl]pyridine-2-carboxamide] | 0.173 µM | > 10 µM |  |  | 

Reference: patent publication US9409866B2, “Pyridine-2-amides useful as CB2 agonists” (Hoffmann-La Roche Inc., priority 2012, dated 2016)
